Measured values as given in patent US12568972B2, “Pyridazinol compounds and derivatives, preparation methods, herbicidal compositions and applications thereof” (Qingdao Kingagroot Chemical Compound Co., Ltd., priority 2018, dated 2026).

Key:
Test in all cases: Post-emergence test, weed control effect
Type in all cases: in vivo
Conditions in all cases: after 3 weeks
Veronica polita = system: Veronica polita
Procedure, shortened: (§1)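 Score 0-10 (10 = completely dead, 1 = below 20%, 0 = no effect) from fresh-weight growth inhibition, read 3 weeks after a post-emergence spray. Greenhouse pot plants at 2-3 leaves; spray solution acetone/Tween-80/water with 80% vegetable oil methyl ester synergist at 1500 g/ha.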

Amaranthus retroflexus = system: Amaranthus retroflexus
Procedure, shortened: as §1

Rorippa indica = system: Rorippa indica
Procedure, shortened: as §1

Chenopodiaceae = system: Chenopodiaceae
Procedure, shortened: as §1

CCC/C(C)=N\Oc1cc(C(F)(F)F)nnc1-c1ccc(OC)cc1 [Compound 1-171]
10: weed control effect, Veronica polita (activity level) (Veronica polita; Dose 3000 g/ha) | weed control effect, Amaranthus retroflexus (activity level) (Amaranthus retroflexus; Dose 3000 g/ha) | weed control effect, Rorippa indica (activity level) (Rorippa indica; Dose 3000 g/ha) | weed control effect, Chenopodiaceae (activity level) (Chenopodiaceae; Dose 3000 g/ha)

Oc1cc(C(F)(F)F)nnc1-c1ccc(Cl)c(F)c1 [Compound 745]
10: weed control effect (activity level), Veronica polita (Veronica polita; Dose 3000 g/ha) | weed control effect (activity level), Amaranthus retroflexus (Amaranthus retroflexus; Dose 3000 g/ha) | weed control effect (activity level), Rorippa indica (Rorippa indica; Dose 3000 g/ha) | weed control effect (activity level), Chenopodiaceae (Chenopodiaceae; Dose 3000 g/ha)

CCN(CC)C(=S)Oc1cc(C(F)(F)F)nnc1-c1ccc(F)cc1 [Compound 1-162]
10: weed control effect, Veronica polita (activity level) (Veronica polita; Dose 3000 g/ha) | weed control effect, Amaranthus retroflexus (activity level) (Amaranthus retroflexus; Dose 3000 g/ha) | weed control effect, Rorippa indica (activity level) (Rorippa indica; Dose 3000 g/ha) | weed control effect, Chenopodiaceae (activity level) (Chenopodiaceae; Dose 3000 g/ha)

COc1ccc(-c2nnc(C(F)(F)F)cc2O)cn1 [Compound 226]
10: weed control effect (activity level), Veronica polita (Veronica polita; dose 2000 g/ha) | weed control effect (activity level), Amaranthus retroflexus (Amaranthus retroflexus; dose 2000 g/ha) | weed control effect (activity level), Rorippa indica (Rorippa indica; dose 2000 g/ha) | weed control effect (activity level), Chenopodiaceae (Chenopodiaceae; dose 2000 g/ha)

CCCC(C)CC/C(C)=N\Oc1cc(C(F)(F)F)nnc1-c1ccccc1 (centres unmarked) [Compound 1-181]
10: weed control effect, Veronica polita (activity level) (Veronica polita; Dose 3000 g/ha) | weed control effect, Amaranthus retroflexus (activity level) (Amaranthus retroflexus; Dose 3000 g/ha) | weed control effect, Rorippa indica (activity level) (Rorippa indica; Dose 3000 g/ha) | weed control effect, Chenopodiaceae (activity level) (Chenopodiaceae; Dose 3000 g/ha)

COc1ccccc1-c1nnc(C(F)(F)F)cc1O [Compound 94]
10: weed control effect (activity level), Veronica polita (Veronica polita; dose 1000 g/ha) | weed control effect (activity level), Amaranthus retroflexus (Amaranthus retroflexus; dose 1000 g/ha) | weed control effect (activity level), Rorippa indica (Rorippa indica; dose 1000 g/ha) | weed control effect (activity level), Chenopodiaceae (Chenopodiaceae; dose 1000 g/ha)

O=[N+]([O-])c1cc(-c2nnc(C(F)(F)F)cc2O)ccc1Br [Compound 755]
10: weed control effect (activity level), Veronica polita (Veronica polita; Dose 3000 g/ha) | weed control effect (activity level), Amaranthus retroflexus (Amaranthus retroflexus; Dose 3000 g/ha) | weed control effect (activity level), Rorippa indica (Rorippa indica; Dose 3000 g/ha) | weed control effect (activity level), Chenopodiaceae (Chenopodiaceae; Dose 3000 g/ha)

COc1ccc(C(=O)Oc2cc(C(F)(F)F)nnc2-c2ccc(F)c(F)c2)cc1 [Compound 1-84]
10: weed control effect, Veronica polita (activity level) (Veronica polita; Dose 3000 g/ha) | weed control effect, Amaranthus retroflexus (activity level) (Amaranthus retroflexus; Dose 3000 g/ha) | weed control effect, Rorippa indica (activity level) (Rorippa indica; Dose 3000 g/ha) | weed control effect, Chenopodiaceae (activity level) (Chenopodiaceae; Dose 3000 g/ha)

Oc1cc(C(F)(F)F)nnc1-c1ccc2ccccc2c1 [Compound 370]
10: weed control effect (activity level), Veronica polita (Veronica polita; dose 2000 g/ha) | weed control effect (activity level), Amaranthus retroflexus (Amaranthus retroflexus; dose 2000 g/ha) | weed control effect (activity level), Rorippa indica (Rorippa indica; dose 2000 g/ha) | weed control effect (activity level), Chenopodiaceae (Chenopodiaceae; dose 2000 g/ha)

Oc1cc(C(F)(F)F)nnc1-c1c(F)ccnc1Cl [Compound 1005]
10: weed control effect (activity level), Veronica polita (Veronica polita; Dose 3000 g/ha) | weed control effect (activity level), Amaranthus retroflexus (Amaranthus retroflexus; Dose 3000 g/ha) | weed control effect (activity level), Rorippa indica (Rorippa indica; Dose 3000 g/ha) | weed control effect (activity level), Chenopodiaceae (Chenopodiaceae; Dose 3000 g/ha)

C#Cc1cc(OC2CC2)ncc1-c1nnc(C(F)(F)F)cc1O [Compound 231]
10: weed control effect (activity level), Veronica polita (Veronica polita; dose 2000 g/ha) | weed control effect (activity level), Amaranthus retroflexus (Amaranthus retroflexus; dose 2000 g/ha) | weed control effect (activity level), Rorippa indica (Rorippa indica; dose 2000 g/ha) | weed control effect (activity level), Chenopodiaceae (Chenopodiaceae; dose 2000 g/ha)

O=C(Oc1cc(C(F)(F)F)nnc1-c1ccc(F)cc1)c1cc(F)cc(F)c1F [Compound 1-93]
10: weed control effect, Veronica polita (activity level) (Veronica polita; Dose 3000 g/ha) | weed control effect, Amaranthus retroflexus (activity level) (Amaranthus retroflexus; Dose 3000 g/ha) | weed control effect, Rorippa indica (activity level) (Rorippa indica; Dose 3000 g/ha) | weed control effect, Chenopodiaceae (activity level) (Chenopodiaceae; Dose 3000 g/ha)

Cc1ccc(F)c(-c2nnc(C(F)(F)F)cc2O)c1 [Compound 57]
10: weed control effect (activity level), Veronica polita (Veronica polita; dose 1000 g/ha) | weed control effect (activity level), Amaranthus retroflexus (Amaranthus retroflexus; dose 1000 g/ha) | weed control effect (activity level), Rorippa indica (Rorippa indica; dose 1000 g/ha) | weed control effect (activity level), Chenopodiaceae (Chenopodiaceae; dose 1000 g/ha)

O=S(=O)(Oc1cc(C(F)(F)F)nnc1-c1ccc(F)c(F)c1)c1ccc(Cl)cc1F [Compound 1-128]
10: weed control effect, Veronica polita (activity level) (Veronica polita; Dose 3000 g/ha) | weed control effect, Amaranthus retroflexus (activity level) (Amaranthus retroflexus; Dose 3000 g/ha) | weed control effect, Rorippa indica (activity level) (Rorippa indica; Dose 3000 g/ha) | weed control effect, Chenopodiaceae (activity level) (Chenopodiaceae; Dose 3000 g/ha)

Oc1cc(C(F)(F)F)nnc1-c1cnc(Cl)cc1Cl [Compound 995]
10: weed control effect (activity level), Veronica polita (Veronica polita; Dose 3000 g/ha) | weed control effect (activity level), Amaranthus retroflexus (Amaranthus retroflexus; Dose 3000 g/ha) | weed control effect (activity level), Rorippa indica (Rorippa indica; Dose 3000 g/ha) | weed control effect (activity level), Chenopodiaceae (Chenopodiaceae; Dose 3000 g/ha)

Oc1cc(C(F)(F)F)nnc1-c1cccnc1Br [Compound 965]
10: weed control effect (activity level), Veronica polita (Veronica polita; Dose 3000 g/ha) | weed control effect (activity level), Amaranthus retroflexus (Amaranthus retroflexus; Dose 3000 g/ha) | weed control effect (activity level), Rorippa indica (Rorippa indica; Dose 3000 g/ha) | weed control effect (activity level), Chenopodiaceae (Chenopodiaceae; Dose 3000 g/ha)

O=C(COCc1ccccc1)Oc1cc(C(F)(F)F)nnc1-c1ccc(F)c(F)c1 [Compound 1-100]
10: weed control effect, Veronica polita (activity level) (Veronica polita; Dose 3000 g/ha) | weed control effect, Amaranthus retroflexus (activity level) (Amaranthus retroflexus; Dose 3000 g/ha) | weed control effect, Rorippa indica (activity level) (Rorippa indica; Dose 3000 g/ha) | weed control effect, Chenopodiaceae (activity level) (Chenopodiaceae; Dose 3000 g/ha)
